Values joined by “and” are separate entries in the source; they are usually repeats but may differ in a detail not shown here. Equal entries are not always repeated.
System: T1, UGT enzymes of human liver microsomes
T1 construct: percentage of control metabolism, 7-HFC glucuronidation; percentage of control metabolism, 7-HFC glucuronidation
Assay: Inhibition of 7-HFC glucuronidation in human liver microsomes
Assay type: biochemical
Settings: 7-HFC 50 μM, human liver microsomes 100 μg/ml, 15 min

Row | % of control metabolism (SD, n = 3), 7-HFC glucuronidation (inhibitor 500 μM) | % of control metabolism (SD, n = 3), 7-HFC glucuronidation (inhibitor 200 μM) | SMILES
1 | 95 (2) % | – | CC(CCc1ccccc1)NCC(O)c1ccc(O)c(C(N)=O)c1 (stereo not drawn) [Labetalol, labetalol]
2 | 63 (0), % and 59 (1) % | 71 (1) % | CCCOC(=O)c1cc(O)c(O)c(O)c1 [Propyl gallate]

Source: patent publication US20030215462A1, “Use of UGT inhibitors to increase bioavailability” (priority 2001, published 2003)
